Data taken from US7763610B2, “Carboxylic acid derived benzoxazines as agents for the treatment of respiratory diseases” (Ono Pharmaceutical Co., Ltd., priority 2003, dated 2010).

Biological target: T1, cysLT2 receptor (Homo sapiens, UniProt Q9NS75)
T1 construct: expressed in transfected cells; host or cells: HEK293
T1 sequence (Q9NS75 1-346): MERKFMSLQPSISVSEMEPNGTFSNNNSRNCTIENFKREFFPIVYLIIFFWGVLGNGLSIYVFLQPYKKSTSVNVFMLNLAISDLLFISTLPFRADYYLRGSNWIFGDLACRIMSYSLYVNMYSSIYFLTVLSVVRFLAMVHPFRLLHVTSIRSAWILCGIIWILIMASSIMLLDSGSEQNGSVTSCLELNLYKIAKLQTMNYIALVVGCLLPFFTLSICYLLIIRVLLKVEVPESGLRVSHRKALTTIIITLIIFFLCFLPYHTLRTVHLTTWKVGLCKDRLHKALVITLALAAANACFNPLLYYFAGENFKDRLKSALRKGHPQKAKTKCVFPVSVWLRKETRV
Experiment: Effect on LTD4-induced increase of intracellular calcium
Type: cell-based
Conditions: HEK293 expression cells of cysLT2 receptor, 100 nM LTD4, compound 180 seconds before stimulation; read-out: IC50 value (50% inhibitory concentration, LTD4-induced intracellular calcium influx)
Method: Expression cells of cysLT2 receptor (HEK293) were seeded in a 96-well plate each containing 1×10^5 cells. The cells were cultured for 24 hours in a 5% CO2 at 37° C. using DMEM (Dulbecco's Modified Eagle Medium). The cells were incubated in 7.5 μM Fura2-AM, 20 mM HEPES (2-[4-(2-hydroxyethyl)-1-piperazinyl]ethanesulfonic acid) and 2.5 mM probenecid for approximately 30 minutes at 37° C. The cells with uptake of Fura2-AM were once washed with assay buffer (Hank's buffer containing 20 mM HEPES) and intracellular calcium influx induced by LTD4 was measured by FDSS2000 (Hamamatsu Photonics K.K.). The compound of the present invention was administered 180 seconds before LTD4 stimulation, and the reaction induced by 100 nM LTD4 was measured in time course for 90 seconds. The effect of the compound of the present invention was evaluated by maximum fluorescence intensity, and 50% inhibitory concentration (IC50) was calculated on each compound.

| Compound | IC50 [nM] |
| --- | --- |
| O=C(O)CCC(=O)N1CC(c2nnn[nH]2)Oc2c(NC(=O)c3ccc(OCCCCc4ccccc4)cc3)cccc21 (centres unmarked) [Example 12] | 101 |
| O=C(O)CCCN1CC(C(=O)O)Oc2c(OCc3ccc(OCCCCc4ccccc4)cc3)cccc21 (centres unmarked) [Example 25] | 30 |
